Data on 17 compounds can be found in ChEMBL document CHEMBL3600363, “Discovery of potent, selective small molecule inhibitors of α-subtype of type III phosphatidylinositol-4-kinase (PI4KIIIα)” (Bioorg Med Chem Lett, 2015).

For assay [1], the target named is T1, Phosphatidylinositol 4,5-bisphosphate 3-kinase catalytic subunit delta isoform (Homo sapiens, UniProt O00329).
T1 sequence (O00329 whole entry): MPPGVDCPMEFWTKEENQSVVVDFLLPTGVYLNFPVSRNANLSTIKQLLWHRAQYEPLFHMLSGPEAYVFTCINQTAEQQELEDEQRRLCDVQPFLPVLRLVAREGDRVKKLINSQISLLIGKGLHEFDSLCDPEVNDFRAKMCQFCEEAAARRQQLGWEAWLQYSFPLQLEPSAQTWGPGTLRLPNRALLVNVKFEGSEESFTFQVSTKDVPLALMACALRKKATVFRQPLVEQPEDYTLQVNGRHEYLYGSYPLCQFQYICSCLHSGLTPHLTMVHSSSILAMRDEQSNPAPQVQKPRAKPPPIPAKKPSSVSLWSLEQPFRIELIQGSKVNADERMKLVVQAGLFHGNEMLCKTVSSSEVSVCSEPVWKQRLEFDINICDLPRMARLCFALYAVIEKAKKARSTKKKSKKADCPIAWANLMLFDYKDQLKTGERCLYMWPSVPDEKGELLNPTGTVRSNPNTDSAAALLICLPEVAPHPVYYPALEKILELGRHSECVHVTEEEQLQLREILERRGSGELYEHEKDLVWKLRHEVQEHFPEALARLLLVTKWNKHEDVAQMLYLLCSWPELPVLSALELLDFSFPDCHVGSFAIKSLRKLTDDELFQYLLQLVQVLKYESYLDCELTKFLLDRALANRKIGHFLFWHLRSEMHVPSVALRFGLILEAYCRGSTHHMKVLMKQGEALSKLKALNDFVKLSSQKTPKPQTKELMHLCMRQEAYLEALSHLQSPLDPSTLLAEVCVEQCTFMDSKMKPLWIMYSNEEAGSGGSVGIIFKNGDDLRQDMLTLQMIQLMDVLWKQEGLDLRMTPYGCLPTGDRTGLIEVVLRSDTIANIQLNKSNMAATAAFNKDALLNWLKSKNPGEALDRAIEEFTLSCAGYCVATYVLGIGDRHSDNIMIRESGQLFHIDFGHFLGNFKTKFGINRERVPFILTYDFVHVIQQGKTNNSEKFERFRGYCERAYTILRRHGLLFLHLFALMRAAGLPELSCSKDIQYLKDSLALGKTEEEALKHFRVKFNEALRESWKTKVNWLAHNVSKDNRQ
The assay can be described thus: Inhibition of PI3Kdelta (unknown origin) pre-incubated for 20 mins before phosphatidylinositol 4, 5-bisphosphate substrate addition by kinase-glo plus luminescence assay. (In general: In Kinase-Glo more light means more ATP remaining.)

The target of assay [2] is Phosphatidylinositol 4,5-bisphosphate 3-kinase catalytic subunit alpha isoform (Homo sapiens, UniProt P42336). The assay can be described thus: Inhibition of PI3Kalpha (unknown origin) pre-incubated for 20 mins before phosphatidylinositol 4, 5-bisphosphate substrate addition by kinase-glo plus luminescence assay.
Assay [3] addresses Phosphatidylinositol 4,5-bisphosphate 3-kinase catalytic subunit gamma isoform (Homo sapiens, UniProt P48736). The assay can be described thus: Inhibition of PI3Kgamma (unknown origin) pre-incubated for 20 mins before phosphatidylinositol 4, 5-bisphosphate substrate addition by kinase-glo plus luminescence assay.
The target in assay [4] is Phosphatidylinositol 4-phosphate 5-kinase type-1 gamma (Homo sapiens, UniProt O60331). Briefly: Inhibition of PIP5K1C (unknown origin) using D-myo-phosphatidylinositol 4-phosphate substrate and ATP by ADP-Glo kinase Assay.
Sequence of Phosphatidylinositol 4-phosphate 5-kinase type-1 gamma (O60331 whole entry): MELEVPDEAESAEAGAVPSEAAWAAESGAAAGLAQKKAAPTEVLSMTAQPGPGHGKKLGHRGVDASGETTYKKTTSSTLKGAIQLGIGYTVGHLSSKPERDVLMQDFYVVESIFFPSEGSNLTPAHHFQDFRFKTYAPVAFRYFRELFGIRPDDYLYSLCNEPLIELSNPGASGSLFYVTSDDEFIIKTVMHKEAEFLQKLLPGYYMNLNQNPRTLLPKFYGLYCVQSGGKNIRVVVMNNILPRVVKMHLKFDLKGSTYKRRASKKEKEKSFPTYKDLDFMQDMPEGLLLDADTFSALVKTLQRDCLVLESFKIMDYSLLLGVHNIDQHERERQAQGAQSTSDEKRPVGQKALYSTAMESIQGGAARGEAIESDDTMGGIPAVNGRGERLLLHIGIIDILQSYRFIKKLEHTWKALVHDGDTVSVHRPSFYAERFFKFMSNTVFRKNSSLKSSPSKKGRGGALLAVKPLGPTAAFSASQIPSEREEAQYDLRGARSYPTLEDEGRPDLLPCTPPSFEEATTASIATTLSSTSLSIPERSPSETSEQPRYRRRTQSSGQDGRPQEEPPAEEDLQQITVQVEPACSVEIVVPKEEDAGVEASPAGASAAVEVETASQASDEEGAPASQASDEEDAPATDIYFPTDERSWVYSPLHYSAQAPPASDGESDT
In assay [5] the target is Phosphatidylinositol 4-kinase beta (Homo sapiens, UniProt Q9UBF8). Briefly: Inhibition of N-terminal GST-tagged human full length recombinant PI4K3beta expressed in Sf9 cells using D-myo-phosphatidylinositol substrate and ATP incubated for 45 mins by ADP-Glo kinase Assay.
Assay [6] deals with Phosphatidylinositol 4,5-bisphosphate 3-kinase catalytic subunit beta isoform (Homo sapiens, UniProt P42338). Briefly: Inhibition of PI3Kbeta (unknown origin) pre-incubated for 20 mins before phosphatidylinositol 4, 5-bisphosphate substrate addition by kinase-glo plus luminescence assay.
Sequence of Phosphatidylinositol 4,5-bisphosphate 3-kinase catalytic subunit beta isoform (P42338 whole entry, canonical isoform): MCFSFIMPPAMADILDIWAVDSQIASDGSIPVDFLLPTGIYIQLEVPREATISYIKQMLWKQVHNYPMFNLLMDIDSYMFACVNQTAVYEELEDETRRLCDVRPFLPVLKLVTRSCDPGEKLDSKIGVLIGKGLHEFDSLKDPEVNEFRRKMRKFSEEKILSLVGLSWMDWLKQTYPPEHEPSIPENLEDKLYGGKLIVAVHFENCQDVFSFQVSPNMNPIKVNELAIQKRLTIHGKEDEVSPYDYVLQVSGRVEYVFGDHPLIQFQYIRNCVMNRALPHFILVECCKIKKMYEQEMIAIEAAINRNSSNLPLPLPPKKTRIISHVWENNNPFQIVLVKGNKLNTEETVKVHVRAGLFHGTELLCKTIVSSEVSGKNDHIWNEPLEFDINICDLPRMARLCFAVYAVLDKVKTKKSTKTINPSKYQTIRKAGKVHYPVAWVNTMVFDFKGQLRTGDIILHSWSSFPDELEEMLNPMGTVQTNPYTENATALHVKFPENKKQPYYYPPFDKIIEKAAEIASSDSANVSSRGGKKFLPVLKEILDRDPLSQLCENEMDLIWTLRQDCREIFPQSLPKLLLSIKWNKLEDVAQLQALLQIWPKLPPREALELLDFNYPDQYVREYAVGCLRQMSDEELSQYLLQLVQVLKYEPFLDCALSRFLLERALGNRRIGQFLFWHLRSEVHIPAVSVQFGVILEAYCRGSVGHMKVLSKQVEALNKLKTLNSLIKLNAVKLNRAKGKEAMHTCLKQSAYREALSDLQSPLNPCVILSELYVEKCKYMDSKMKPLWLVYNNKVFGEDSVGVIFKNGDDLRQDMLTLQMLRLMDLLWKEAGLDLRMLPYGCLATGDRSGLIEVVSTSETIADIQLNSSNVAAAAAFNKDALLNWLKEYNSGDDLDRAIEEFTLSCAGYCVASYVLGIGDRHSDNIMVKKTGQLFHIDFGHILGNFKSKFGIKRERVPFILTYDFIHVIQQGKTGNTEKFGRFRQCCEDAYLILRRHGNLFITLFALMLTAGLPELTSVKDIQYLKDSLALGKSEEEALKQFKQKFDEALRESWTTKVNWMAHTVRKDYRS
For assay [7], the target named is Phosphatidylinositol 4-kinase alpha (Homo sapiens, UniProt P42356). The assay can be described thus: Inhibition of N-terminal FLAG-tagged human full length recombinant PI4K3alpha using D-myo-phosphatidylinositol substrate and ATP incubated for 45 mins by ADP-Glo kinase Assay. On the technique in general: ADP-Glo first removes unused ATP, then detects ADP through luciferase.
Sequence of Phosphatidylinositol 4-kinase alpha (P42356 whole entry): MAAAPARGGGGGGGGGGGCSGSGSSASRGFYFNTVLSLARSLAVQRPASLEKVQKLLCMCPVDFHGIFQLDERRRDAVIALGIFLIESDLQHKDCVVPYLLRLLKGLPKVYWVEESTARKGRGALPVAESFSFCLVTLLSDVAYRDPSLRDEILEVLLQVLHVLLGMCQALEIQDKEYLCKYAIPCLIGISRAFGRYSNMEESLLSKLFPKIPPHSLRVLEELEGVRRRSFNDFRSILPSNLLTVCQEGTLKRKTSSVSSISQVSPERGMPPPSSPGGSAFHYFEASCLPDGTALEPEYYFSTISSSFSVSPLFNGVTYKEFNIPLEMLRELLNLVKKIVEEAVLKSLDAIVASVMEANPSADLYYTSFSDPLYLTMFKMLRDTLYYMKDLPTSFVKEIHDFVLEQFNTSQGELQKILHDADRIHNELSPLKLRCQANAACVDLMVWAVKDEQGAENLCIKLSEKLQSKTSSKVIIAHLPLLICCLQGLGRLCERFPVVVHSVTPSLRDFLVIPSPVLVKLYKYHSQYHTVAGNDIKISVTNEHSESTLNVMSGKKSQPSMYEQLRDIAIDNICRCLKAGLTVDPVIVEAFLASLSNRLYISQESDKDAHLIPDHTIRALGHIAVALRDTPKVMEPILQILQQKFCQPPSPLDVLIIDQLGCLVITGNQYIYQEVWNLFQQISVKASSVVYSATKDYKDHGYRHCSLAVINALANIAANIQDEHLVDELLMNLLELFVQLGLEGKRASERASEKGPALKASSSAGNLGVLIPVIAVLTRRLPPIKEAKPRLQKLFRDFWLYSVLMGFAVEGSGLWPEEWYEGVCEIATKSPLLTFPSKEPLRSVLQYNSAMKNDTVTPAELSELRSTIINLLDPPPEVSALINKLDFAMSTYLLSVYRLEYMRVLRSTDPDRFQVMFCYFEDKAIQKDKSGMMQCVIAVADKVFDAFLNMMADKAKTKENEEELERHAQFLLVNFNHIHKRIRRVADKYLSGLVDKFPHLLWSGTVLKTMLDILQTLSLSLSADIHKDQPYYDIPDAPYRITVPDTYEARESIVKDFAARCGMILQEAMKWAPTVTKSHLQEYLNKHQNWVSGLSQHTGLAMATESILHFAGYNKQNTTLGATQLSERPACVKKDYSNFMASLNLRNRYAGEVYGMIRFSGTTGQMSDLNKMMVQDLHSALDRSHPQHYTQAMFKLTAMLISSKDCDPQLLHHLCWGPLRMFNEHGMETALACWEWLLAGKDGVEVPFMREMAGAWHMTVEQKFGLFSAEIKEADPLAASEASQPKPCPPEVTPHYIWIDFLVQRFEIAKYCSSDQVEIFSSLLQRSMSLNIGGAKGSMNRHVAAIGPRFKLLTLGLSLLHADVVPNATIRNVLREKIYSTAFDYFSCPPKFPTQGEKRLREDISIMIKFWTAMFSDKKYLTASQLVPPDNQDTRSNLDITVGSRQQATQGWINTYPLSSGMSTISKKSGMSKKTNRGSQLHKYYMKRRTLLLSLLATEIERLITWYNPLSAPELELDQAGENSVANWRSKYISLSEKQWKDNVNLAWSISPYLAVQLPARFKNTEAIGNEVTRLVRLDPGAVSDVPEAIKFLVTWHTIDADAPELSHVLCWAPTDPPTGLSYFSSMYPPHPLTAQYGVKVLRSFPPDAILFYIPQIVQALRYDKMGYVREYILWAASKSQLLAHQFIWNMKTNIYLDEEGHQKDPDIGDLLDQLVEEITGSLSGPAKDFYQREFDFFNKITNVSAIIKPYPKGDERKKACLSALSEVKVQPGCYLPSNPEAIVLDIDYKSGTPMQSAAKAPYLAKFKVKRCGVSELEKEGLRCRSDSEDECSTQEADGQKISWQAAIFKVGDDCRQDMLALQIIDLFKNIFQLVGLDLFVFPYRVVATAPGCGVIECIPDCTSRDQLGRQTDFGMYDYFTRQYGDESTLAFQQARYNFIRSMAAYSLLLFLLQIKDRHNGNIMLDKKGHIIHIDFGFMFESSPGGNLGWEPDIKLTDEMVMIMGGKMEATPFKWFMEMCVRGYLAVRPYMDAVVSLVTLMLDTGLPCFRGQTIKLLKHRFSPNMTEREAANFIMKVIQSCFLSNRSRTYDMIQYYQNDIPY

Assay [8] is described as follows: Inhibition of PI4K3alpha in mouse NIH3T3 cells co-expressing PDGFRbeta receptor assessed as inhibition of PDGF-induced IP1 accumulation incubated for 30 mins by HTRF based assay. As to conditions: NIH3T3, 0.5 h. The format is cell-based.

Sequence of Phosphatidylinositol 4,5-bisphosphate 3-kinase catalytic subunit gamma isoform (P48736 whole entry, canonical isoform): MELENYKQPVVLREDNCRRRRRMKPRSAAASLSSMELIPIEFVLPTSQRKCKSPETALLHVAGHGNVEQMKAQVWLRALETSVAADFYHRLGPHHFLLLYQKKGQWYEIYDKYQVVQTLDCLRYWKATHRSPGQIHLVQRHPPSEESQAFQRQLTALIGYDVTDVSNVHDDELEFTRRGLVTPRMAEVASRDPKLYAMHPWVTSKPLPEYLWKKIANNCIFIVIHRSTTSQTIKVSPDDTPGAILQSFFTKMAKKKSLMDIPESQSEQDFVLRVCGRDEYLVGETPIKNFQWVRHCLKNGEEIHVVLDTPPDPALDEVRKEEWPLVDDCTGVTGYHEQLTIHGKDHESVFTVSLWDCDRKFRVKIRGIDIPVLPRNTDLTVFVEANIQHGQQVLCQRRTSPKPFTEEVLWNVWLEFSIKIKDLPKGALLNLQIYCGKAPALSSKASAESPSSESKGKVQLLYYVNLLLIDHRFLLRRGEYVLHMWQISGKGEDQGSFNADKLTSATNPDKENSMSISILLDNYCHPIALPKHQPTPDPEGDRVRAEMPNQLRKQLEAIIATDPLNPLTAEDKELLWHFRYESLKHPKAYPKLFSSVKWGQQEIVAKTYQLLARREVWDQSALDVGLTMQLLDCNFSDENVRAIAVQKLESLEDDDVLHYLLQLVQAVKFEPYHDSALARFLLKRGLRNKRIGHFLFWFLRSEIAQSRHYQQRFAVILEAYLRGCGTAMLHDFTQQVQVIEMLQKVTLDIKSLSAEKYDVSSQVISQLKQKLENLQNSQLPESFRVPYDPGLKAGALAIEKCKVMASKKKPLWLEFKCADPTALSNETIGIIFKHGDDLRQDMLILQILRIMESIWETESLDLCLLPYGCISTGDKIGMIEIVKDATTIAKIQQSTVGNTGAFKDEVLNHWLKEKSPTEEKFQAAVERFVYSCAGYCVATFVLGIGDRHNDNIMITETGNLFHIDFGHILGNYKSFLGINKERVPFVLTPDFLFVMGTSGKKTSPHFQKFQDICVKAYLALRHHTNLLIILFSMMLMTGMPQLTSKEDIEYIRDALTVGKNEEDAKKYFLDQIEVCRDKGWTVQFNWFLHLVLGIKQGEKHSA

As for `CCOc1ccc(-c2ccc3nc(N)sc3c2)cn1`, the IC50 (commonly the concentration at which inhibition is half-maximal) in assay [1] is 3.98 µM; in assay [2], 1.58 µM; in assay [3], 2 µM; in assay [4] it was more than 100 µM; in assay [5], 0.631 µM; in assay [6], 6.31 µM. The IC50 in assay [7] is 0.158 µM.

As to `CCSc1ccc(-c2ccc3nc(N)sc3c2)cn1`, the IC50 in assay [1] is 2 µM; in assay [2] it was 1.26 µM; in assay [3] it was 1 µM; in assay [4] it was more than 100 µM; in assay [5], 0.631 µM; in assay [6], 5.01 µM. For the same compound, the IC50 in assay [7] is 0.1 µM.

On to `CNCc1ccc(-c2ccc3nc(N)sc3c2)cn1`, for which the IC50 in assay [1] is 63.1 µM; in assay [2], 63.1 µM; in assay [3] it was 50.1 µM; in assay [4] it was more than 100 µM; in assay [5] it was 3.16 µM; in assay [6] it was 79.4 µM. Also, the IC50 in assay [7] was 2.51 µM.

In the case of `CC(C)Oc1ccc(-c2ccc3nc(N)sc3c2)cn1`, the IC50 in assay [1] is 12.6 µM; in assay [2], 5.01 µM; in assay [3] it was 12.6 µM; in assay [4], more than 100 µM; in assay [5], 1.26 µM; in assay [6] it was 31.6 µM. In assay [7], the concentration for half-maximal inhibition (IC50) is 0.0794 µM.

For the compound `CCNc1ccc(-c2ccc3nc(N)sc3c2)cn1`, the IC50 in assay [1] was 6.31 µM; in assay [2], 2 µM; in assay [3], 3.98 µM; in assay [4], 31.6 µM; in assay [5], 1 µM; in assay [6], 12.6 µM. Also, the IC50 in assay [7] was 0.631 µM.

In the case of `CCN(C)c1ccc(-c2ccc3nc(N)sc3c2)cn1`, the IC50 in assay [1] was 12.6 µM; in assay [2] it was 6.31 µM; in assay [3], 3.98 µM; in assay [4], more than 100 µM; in assay [5], 1.58 µM; in assay [6] it was 39.8 µM. Moreover, the IC50 in assay [7] was 0.631 µM.

For the compound `Cc1ccc(-c2ccc3nc(N)sc3c2)cn1`, the IC50 in assay [1] was 1.26 µM; in assay [2], 1 µM; in assay [3], 1.26 µM; in assay [4], more than 100 µM; in assay [5], 0.501 µM; in assay [6], 2.51 µM. Moreover, the 50% inhibitory concentration (IC50) in assay [7] is 1.58 µM.

Consider `Nc1nc2ccc(-c3ccc(C(F)(F)F)nc3)cc2s1`, for which the IC50 was 1 µM in assay [1]; 2 µM in assay [2]; 1 µM in assay [3]; more than 100 µM in assay [4]; 1.58 µM in assay [5]; 3.98 µM in assay [6]. Further, the IC50 in assay [7] was 15.8 µM.

Take `CS(=O)(=O)c1ccc(-c2ccc3nc(N)sc3c2)cn1`: the IC50 is 12.6 µM in assay [1]; 158 µM in assay [2]; 10 µM in assay [3]; 10 µM in assay [4]; 7.94 µM in assay [5]; 39.8 µM in assay [6]. Moreover, the IC50 in assay [7] is 25.1 µM.

For the compound `Nc1nc2ccc(-c3ccc(OCCO)nc3)cc2s1`, the IC50 is 2 µM in assay [1]; 1.26 µM in assay [2]; 1.26 µM in assay [3]; more than 100 µM in assay [4]; 0.501 µM in assay [5]; 6.31 µM in assay [6]. Also, the IC50 in assay [7] is 0.316 µM.

For `COCCOc1ccc(-c2ccc3nc(N)sc3c2)cn1`, the IC50 in assay [1] is 6.31 µM; in assay [2], 2.51 µM; in assay [3], 3.16 µM; in assay [4], more than 100 µM; in assay [5], 1 µM; in assay [6], 7.94 µM. The IC50 in assay [7] was 0.316 µM.

`Nc1nc2ccc(-c3ccn(CC4CC4)c(=O)c3)cc2s1`: the IC50 in assay [8] is 0.501 µM; in assay [1] it was 12.6 µM; in assay [2] it was 6.31 µM; in assay [3], 1.58 µM; in assay [4], more than 79.4 µM; in assay [5], 1.58 µM. Further, the IC50 was more than 126 µM in assay [6] and 0.00631 µM in assay [7].

`O=c1cc(-c2ccc3nc(NCC4CCOCC4)sc3c2)ccn1CC1CC1`: the IC50 in assay [8] was 0.794 µM; in assay [1], 100 µM; in assay [2], more than 200 µM; in assay [3] it was 15.8 µM; in assay [4] it was more than 100 µM; in assay [5], 0.398 µM. The figures for the IC50 in assay [6] and in assay [7] were more than 200 µM and 0.00501 µM, respectively.

In the case of `C[C@@H](Nc1nc2ccc(-c3ccn(CC4CC4)c(=O)c3)cc2s1)C1CCOCC1`, the IC50 in assay [8] was 0.631 µM; in assay [1], more than 200 µM; in assay [2], more than 200 µM; in assay [3], 63.1 µM; in assay [4], more than 100 µM; in assay [5], 0.316 µM. Moreover, the IC50 was more than 200 µM in assay [6] and 0.00794 µM in assay [7].

With `C[C@H](Nc1nc2ccc(-c3ccn(CC4CC4)c(=O)c3)cc2s1)C1CCOCC1`, the IC50 in assay [8] was 7.94 µM; in assay [1] it was more than 200 µM; in assay [2], more than 200 µM; in assay [3], more than 200 µM; in assay [4] it was 25.1 µM; in assay [5], 2.51 µM. Moreover, the IC50 is more than 200 µM in assay [6] and 0.0398 µM in assay [7].

For the compound `O=c1cc(-c2ccc3nc(NCC4CCS(=O)(=O)CC4)sc3c2)ccn1CC1CC1`, the IC50 is 0.631 µM in assay [8]; more than 200 µM in assay [1]; 79.4 µM in assay [2]; 50.1 µM in assay [3]; more than 100 µM in assay [4]; 0.631 µM in assay [5]. Further, the results for the IC50 in assay [6] and in assay [7] were more than 200 µM and 0.002 µM, respectively.

Turning to `O=c1cc(-c2ccc3nc(NC[C@H]4CC[C@H](C(=O)O)CC4)sc3c2)ccn1CC1CC1`, the IC50 in assay [8] is 0.316 µM; in assay [1], more than 79.4 µM; in assay [2] it was 100 µM; in assay [3], 10 µM; in assay [5], 0.251 µM; in assay [6], more than 200 µM. For the same compound, the IC50 in assay [7] was 0.001 µM.
